Results: PubChem BioAssay AID2060887 (Molecular Pharmacology Branch, DTP, NCI, 2025)

System: 782815-120-R-J1-PDC complex spheroid viability
Test: Anticancer human tumor 782815-120-R-J1-PDC patient-derived colon adenocarcinoma cell line growth inhibition [RAS]
Settings: for viability, T/C: stronger effect = lower value; active = viability on the fitted dose curve at most 10% of control; inactive = the rest
Procedure, shortened: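 Tumour cells grown as complex spheroids with HUVEC endothelial cells and mesenchymal stem cells, treated with RAS pathway inhibitor combinations. Each agent spans half-log steps from near clinical Cmax, or 10 microM where Cmax is unknown.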
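Note: spheroids exposed to compounds for 7 days before reading.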
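Throughout, for viability, T/C: 100% = DMSO vehicle control viability.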

CC(C)n1nc(-c2ccc3oc(N)nc3c2)c2c(N)ncnc21 + CCn1c(-c2cc(N3CCN(C)CC3)cnc2C(C)OC)c2c3cc(ccc31)-c1csc(n1)CC(NC(=O)C1CC1C)C(=O)N1CCCC(N1)C(=O)OCC(C)(C)C2
32.6 nM: IC50 (curve of first compound, second compound 0.003 µM)
inactive: viability, T/C (second compound 0.000949 µM, first compound 0.000316 µM) 79.2% | viability, T/C (second compound 0.000949 µM, first compound 0.001 µM) 71.7% | viability, T/C (second compound 0.000949 µM, first compound 0.00316 µM) 70.3% | viability, T/C (second compound 0.000949 µM, first compound 0.01 µM) 71.4% | viability, T/C (second compound 0.000949 µM, first compound 0.0316 µM) 65.5% | viability, T/C (second compound 0.000949 µM, first compound 0.1 µM) 65.9% | viability, T/C (second compound 0.003 µM, first compound 0.000316 µM) 64.2% | viability, T/C (second compound 0.003 µM, first compound 0.001 µM) 57.5% | viability, T/C (second compound 0.003 µM, first compound 0.00316 µM) 59.6% | viability, T/C (second compound 0.003 µM, first compound 0.01 µM) 52.9% | viability, T/C (second compound 0.003 µM, first compound 0.0316 µM) 53.2% | viability, T/C (second compound 0.003 µM, first compound 0.1 µM) 40.9% | viability, T/C (second compound 0.00949 µM, first compound 0.000316 µM) 36.3% | viability, T/C (second compound 0.00949 µM, first compound 0.001 µM) 34.2% | viability, T/C (second compound 0.00949 µM, first compound 0.00316 µM) 35.9% | viability, T/C (second compound 0.00949 µM, first compound 0.01 µM) 29% | viability, T/C (second compound 0.00949 µM, first compound 0.0316 µM) 27.7% | viability, T/C (second compound 0.00949 µM, first compound 0.1 µM) 23.7% | viability, T/C (second compound 0.03 µM, first compound 0.000316 µM) 19.4% | viability, T/C (second compound 0.03 µM, first compound 0.001 µM) 19.6% | viability, T/C (second compound 0.03 µM, first compound 0.00316 µM) 20.6% | viability, T/C (second compound 0.03 µM, first compound 0.01 µM) 17% | viability, T/C (second compound 0.03 µM, first compound 0.0316 µM) 14.6% | viability, T/C (second compound 0.03 µM, first compound 0.1 µM) 10.7% | viability, T/C (second compound 0.0949 µM, first compound 0.000316 µM) 15.4% | viability, T/C (second compound 0.0949 µM, first compound 0.001 µM) 16.2% | viability, T/C (second compound 0.0949 µM, first compound 0.00316 µM) 14.8% | viability, T/C (second compound 0.0949 µM, first compound 0.01 µM) 14.2% | viability, T/C (second compound 0.0949 µM, first compound 0.0316 µM) 9.96% | viability, T/C (second compound 0.3 µM, first compound 0.000316 µM) 15.2% | viability, T/C (second compound 0.3 µM, first compound 0.001 µM) 15.5% | viability, T/C (second compound 0.3 µM, first compound 0.00316 µM) 12.6% | viability, T/C (second compound 0.3 µM, first compound 0.01 µM) 12.4%
> 100 nM: IC50 (curve of first compound, second compound 0.000949 µM)
< 0.316 nM: IC50 (curve of first compound, second compound 0.00949 µM) | IC50 (curve of first compound, second compound 0.03 µM) | IC50 (curve of first compound, second compound 0.0949 µM) | IC50 (curve of first compound, second compound 0.3 µM)
active: viability, T/C (second compound 0.0949 µM, first compound 0.1 µM) 6.66% | viability, T/C (second compound 0.3 µM, first compound 0.0316 µM) 8.16% | viability, T/C (second compound 0.3 µM, first compound 0.1 µM) 4.66%

CCn1c(-c2cccnc2C(C)OC)c2c3cc(ccc31)N1CCOC(CC(NC(=O)C(C(C)C)N(C)C(=O)C3(F)CCN(C(=O)C#CC(C)(C)N(C)C)CC3)C(=O)N3CCCC(N3)C(=O)OCC(C)(C)C2)C1 (centres undefined)
inactive: viability, T/C (compound 0.000949 µM) 95.4% [middle of 8 runs] | viability, T/C (compound 0.003 µM) 100% [middle of 8 runs] | viability, T/C (compound 0.00949 µM) 95.8% [middle of 8 runs] | viability, T/C (compound 0.03 µM) 98.5% [middle of 8 runs] | viability, T/C (compound 0.0949 µM) 96.5% [middle of 8 runs] | viability, T/C (compound 0.3 µM) 89.1% [middle of 8 runs]
> 300 nM: IC50 (compound alone, run of 07/09/2024)
